How the values were obtained:
brown adipocytes = test: Thermogenic response (heat output) of cultured brown adipocytes on the thermoelectric sensor; type: cell-based
Procedure: Brown adipocytes. Brown adipose tissue (BAT) was dissected from the interscapular, subscapular and the axillary regions of four 4-week-old male Naval Medical Research Institute (NMRI) mice. Pre-adipocytes were isolated and seeded in three 30 mm culture dishes and incubated in medium containing sodium bicarbonate (3.7 g/l) under 8% CO2 atmosphere for 6 days, after which time they were harvested. The culture medium based on DMEM with pH 7.4, was modified with 10% foetal calf serum, 20 nM insulin, 1 nM triiodothyronin (T3), 25 μg/ml Na-ascorbate, 4 mM glutamine, 10 mM HEPES, 50 IU/ml penicillin and 50 μg/ml streptomycin. Insulin was required for the expression of mitochondrial uncoupling protein (UCP) whereas the presence of T3 increased the thermogenic response due to more β-adrenergic receptors on the cells. All chemicals were supplied from Sigma-Aldrich and ICN Biomedicals Inc.
(§1) Experimental Set-up: The sensor chip used in the experiment (FIG. 1) was connected to the custom-made low noise preamplifier, which was positioned within 1 cm of the sensor chip in order to reduce attenuation of the voltage signal and minimise interference. The chip-holder was connected to the amplifier through a gold plated 2.54 mm (0.1 inch) pitch PCB edge connector (gold was used consistently in all contacts to avoid the creation of additional thermocouple junctions between the sensor output and the amplifier input). A transparent chamber enclosed the sensor from the surrounding air to eliminate rapid temperature changes. Water (37° C. or 25° C.), maintained at a constant temperature, was circulated through a 1 ml chamber integrated as part of the copper base plate. Both amplifier and sensor were positioned under a stereo-microscope for the manipulation and positioning of cells, injection of drugs and visual observation throughout the experiment,. The attachment of cells on the thermopile was enhanced by pre-treating the sensor surface with poly-L-lysine, adsorbed from a 0.01% solution in buffer.
The cell chamber was first covered with a 0.5 μL drop of culture medium with a subsequent addition of 15 μL liquid paraffin (mineral oil) in order to prevent evaporation of the medium. Re-suspended adipocytes (or cardiomyocytes) were positioned on top of the sensing junctions using a micropipette and micromanipulator (FIG. 3a, b, c). Excess medium was removed from the titre chamber leaving a total volume of 700 pL.
Measurements of heat output from cells were made with the cell chamber filled with 700 pL of culture medium and overlain with a layer of mineral oil to prevent evaporation. The device was held at a constant temperature of either 25° C. or 37° C. In the absence of cells there was no response from the thermopile to the injection of 10 pL of culture medium, nor to 10 pL culture medium containing a final concentration of 1.4 μM NE (see FIG. 4). […] The magnitude of the response was consistent with published values from populations of cells, where above-threshold levels of NE activation induced a ten-fold increase in oxygen consumption.

single mouse liver cell = details: H2O2 initial concentration 14 mM, 700 pL, n=3
From the text: The culture medium (pH 7.4) required to accommodate the cell occupied the full volume of the reaction vessel, and was considered to have the same thermodynamic properties as water. […] The heat conductance for a single cell system would be 80 μW/K with a heat capacity of 1 μJ/K.
Subsequently a mouse liver cell was positioned by a micromanipulator and immobilised on top of the temperature sensors in the reaction vessel with the aid of Cell-Tak tissue adhesive ensuring good thermal contact between the cell and sensor surface. H2O2 was then microinjected to yield an initial concentration of 14 mM after 200 seconds of the experiment commencing. The slightly altered pH value of the medium has minimal effect on the catalase activity. […] The short time constant for thermal equilibrium of the sensor (12 ms) compared to the long time duration of the measured signal (100 s), excludes a temperature difference in the injected solution as the cause of the measured temperature change.

[1] = test system: rabbit ventricular cardiomyocytes; test: Heat output from isolated cardiac myocytes challenged with a mitochondrial uncoupler; type: cell-based; details: CCCP 14 μM final concentration, n=5
Procedure: Cardiomyocytes. Isolated cells were obtained from adult rabbit left ventricle by collagenase digestion and kept in Base Krebs Solution, containing: 120 mM NaCl, 20 mM sodium N-hydroxyethylpiperazine-N′-2-ethane sulphonic acid (HEPES), 5.4 mM KCl, 0.52 mM NaH2PO4, 3.5 mM MgCl2.6 H2O, 20 mM taurine, 10 mM creatine, 11.1 mM glucose, 0.1% bovine serum albumin (BSA), pH 7.4. Cells were transferred to the sensor chips using a pipette (manual or robotic instrument) and placed onto the thermocouple junctions.
as §1, with “Both amplifier and sensor were positioned under a stereo-microscope for the manipulation and positioning of cells, injection of drugs and visual observation throughout the experiment,. The attachment of cells on the thermopile was enhanced by pre-treating the sensor surface with poly-L-lysine, adsorbed from a 0.01% solution in buffer.” left out

## C=C(C)[C@H]1Cc2c(ccc3c2O[C@@H]2COc4cc(OC)c(OC)cc4[C@@H]2C3=O)O1 [rotenone]
Brown adipocytes; NE-stimulated brown adipocytes, rotenone 14 μM final concentration
  delay before temperature response began to return to basal level: 3 min
Brown adipocytes; NE-stimulated brown adipocytes, rotenone 14 μM final concentration, after the delay
  time for temperature response to return to basal level: ≤ 5 min

## NC[C@H](O)c1ccc(O)c(O)c1 [NE, noradrenaline]
Brown adipocytes; 1.4 μM NE final concentration (saturated thermogenic response)
  time to maximum value of heat production: ≤ 2 min
Brown adipocytes; NE-stimulated cells, 1.4 μM
  duration for which heat output was sustained: at least 20 minutes
Brown adipocytes; brown adipocytes, 1.4 μM NE final concentration, n=5
  average power output per cell: 1.63 nW per cell
Brown adipocytes; groups of 10 brown adipocytes, 1.4 μM NE final concentration, 700 pL chamber, n=5
  average power output, thermogenic response from groups of 10 NE-stimulated cells: 16.3 nW

## OO [H2O2, Hydrogen peroxide]
Single mouse liver cell
  generated power, maximum signal change: 38.2 nW

## N#CC(C#N)=NNc1cccc(Cl)c1 [CCCP, carbonyl cyanide m-chlorophenyl hydrazone]
[1]
  heat production per cell: 1.71 nW per cell
[1]; within three minutes
  mean change in signal: 136 μK
